Source: patent US20240058352A1, “COMBINATION THERAPIES FOR THE TREATMENT OF CANCER” (Erasca, Inc., priority 2020, published 2024)

Test system: cell viability
Assay: Cellular proliferation assay (percent CTG activity, FIG. 23C)
Assay type: cell-based
Conditions: agent alone, cell line not stated

COCOC[C@H]1C[C@H]2COc3c(Sc4cnc(N5CCC6(CC5)CO[C@@H](C)[C@H]6N)c(CO)n4)ccnc3N2C1 [compound of Formula I]
percent CTG activity (cell viability), single agent: minimal effect on cell viability
